Data: PubChem BioAssay (NCI)
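Cells were grown in 96-well plates and exposed to each compound for 48 hours at five concentrations; endpoints were interpolated linearly between bracketing concentrations, or set to the highest concentration if not reached. TGI denotes the concentration required for complete inhibition of growth.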

What was measured:
Experiment in all cases: inhibition of tumour cell growth, NCI panel, 48 h
[1] = test system: 786-0 renal
[2] = test system: A549 NSCLC
[3] = test system: ACHN renal
[4] = test system: CAKI-1 renal
[5] = test system: CCRF-CEM leukemia
[6] = test system: COLO 205 colon
[7] = test system: DLD-1 colon
[8] = test system: DMS 114 small cell lung
[9] = test system: DMS 273 small cell lung
[10] = test system: EKVX NSCLC
[11] = test system: HCC-2998 colon
[12] = test system: HCT-116 colon
[13] = test system: HCT-15 colon
[14] = test system: HL-60(TB) leukemia
[15] = test system: HOP-18 NSCLC
[16] = test system: HOP-62 NSCLC
[17] = test system: HOP-92 NSCLC
[18] = test system: HT29 colon
[19] = test system: IGROV1 ovarian
[20] = test system: K-562 leukemia
[21] = test system: KM12 colon
[22] = test system: KM20L2 colon
[23] = test system: LOX IMVI melanoma
[24] = test system: LXFL 529 NSCLC
[25] = test system: M14 melanoma
[26] = test system: M19-MEL melanoma
[27] = test system: MALME-3M melanoma
[28] = test system: MOLT-4 leukemia
[29] = test system: NCI-H226 lung
[30] = test system: NCI-H23 lung
[31] = test system: NCI-H460 lung
[32] = test system: NCI-H522 lung
[33] = test system: OVCAR-3 ovarian
[34] = test system: OVCAR-4 ovarian
[35] = test system: OVCAR-5 ovarian
[36] = test system: OVCAR-8 ovarian
[37] = test system: RPMI-8226 leukemia
[38] = test system: RXF 393 renal
[39] = test system: SF-268 CNS
[40] = test system: SF-295 CNS
[41] = test system: SF-539 CNS
[42] = test system: SK-MEL-2 melanoma
[43] = test system: SK-MEL-28 melanoma
[44] = test system: SK-MEL-5 melanoma
[45] = test system: SK-OV-3 ovarian
[46] = test system: SN12C renal
[47] = test system: SNB-19 CNS
[48] = test system: SNB-75 CNS
[49] = test system: SNB-78 CNS
[50] = test system: SR leukemia
[51] = test system: SW-620 colon
[52] = test system: TK-10 renal
[53] = test system: U251 CNS
[54] = test system: UACC-257 melanoma
[55] = test system: UACC-62 melanoma
[56] = test system: UO-31 renal
[57] = test system: XF 498 CNS

Question: With S=c1sc2c(n1-c1ccccc1)NC=NC2S (stereo not drawn) as the compound, how does the TGI [1] read?
Answer: > 100 µM

Question: And the TGI [2]?
Answer: > 100 µM

Question: And the TGI [3]?
Answer: > 100 µM

Question: What about the TGI [4] of the same compound?
Answer: > 100 µM

Question: And the TGI [5]?
Answer: > 100 µM

Question: And the TGI [6]?
Answer: > 100 µM

Question: And the TGI [7]?
Answer: > 100 µM

Question: And the TGI [8]?
Answer: > 100 µM

Question: And the TGI [9]?
Answer: > 100 µM

Question: What about the TGI [10] of the same compound?
Answer: > 100 µM

Question: What about the TGI [11] of the same compound?
Answer: > 100 µM

Question: And the TGI [12]?
Answer: > 100 µM

Question: And the TGI [13]?
Answer: > 100 µM

Question: And the TGI [14]?
Answer: > 100 µM

Question: What about the TGI [15] of the same compound?
Answer: 92.1 µM

Question: What about the TGI [16] of the same compound?
Answer: > 100 µM

Question: What about the TGI [17] of the same compound?
Answer: 71.1 µM

Question: What about the TGI [18] of the same compound?
Answer: > 100 µM

Question: And the TGI [19]?
Answer: > 100 µM

Question: And the TGI [20]?
Answer: > 100 µM

Question: And the TGI [21]?
Answer: > 100 µM

Question: What about the TGI [22] of the same compound?
Answer: > 100 µM

Question: What about the TGI [23] of the same compound?
Answer: > 100 µM

Question: What about the TGI [24] of the same compound?
Answer: > 100 µM

Question: And the TGI [25]?
Answer: > 100 µM

Question: And the TGI [26]?
Answer: > 100 µM

Question: And the TGI [27]?
Answer: > 100 µM

Question: And the TGI [28]?
Answer: > 100 µM

Question: What about the TGI [29] of the same compound?
Answer: > 100 µM

Question: What about the TGI [30] of the same compound?
Answer: > 100 µM

Question: What about the TGI [31] of the same compound?
Answer: > 100 µM

Question: What about the TGI [32] of the same compound?
Answer: > 100 µM

Question: And the TGI [33]?
Answer: > 100 µM

Question: What about the TGI [34] of the same compound?
Answer: > 100 µM

Question: What about the TGI [35] of the same compound?
Answer: > 100 µM

Question: And the TGI [36]?
Answer: > 100 µM

Question: What about the TGI [37] of the same compound?
Answer: > 100 µM

Question: What about the TGI [38] of the same compound?
Answer: > 100 µM

Question: What about the TGI [39] of the same compound?
Answer: > 100 µM

Question: What about the TGI [40] of the same compound?
Answer: > 100 µM

Question: And the TGI [41]?
Answer: > 100 µM

Question: What about the TGI [42] of the same compound?
Answer: > 100 µM

Question: What about the TGI [43] of the same compound?
Answer: > 100 µM

Question: And the TGI [44]?
Answer: > 100 µM

Question: And the TGI [45]?
Answer: > 100 µM

Question: What about the TGI [46] of the same compound?
Answer: > 100 µM

Question: What about the TGI [47] of the same compound?
Answer: > 100 µM

Question: What about the TGI [48] of the same compound?
Answer: > 100 µM

Question: What about the TGI [49] of the same compound?
Answer: > 100 µM

Question: And the TGI [50]?
Answer: > 100 µM

Question: And the TGI [51]?
Answer: > 100 µM

Question: And the TGI [52]?
Answer: > 100 µM

Question: What about the TGI [53] of the same compound?
Answer: > 100 µM

Question: What about the TGI [54] of the same compound?
Answer: > 100 µM

Question: What about the TGI [55] of the same compound?
Answer: > 100 µM

Question: What about the TGI [56] of the same compound?
Answer: > 100 µM

Question: What about the TGI [57] of the same compound?
Answer: > 100 µM

Question: CCCCCC[C@@H]1CCC2C(CO)[C@@H](O)CC[C@@H]2C1 (stereo partly drawn) was tested. Which TGI [1] did it give?
Answer: 33.5 µM

Question: And the TGI [2]?
Answer: 32.1 µM

Question: What about the TGI [3] of the same compound?
Answer: 33.6 µM

Question: What about the TGI [5] of the same compound?
Answer: 79.9 µM

Question: What about the TGI [6] of the same compound?
Answer: 35.1 µM

Question: What about the TGI [7] of the same compound?
Answer: 34.6 µM

Question: What about the TGI [8] of the same compound?
Answer: 37.5 µM

Question: What about the TGI [9] of the same compound?
Answer: 39.4 µM

Question: What about the TGI [10] of the same compound?
Answer: 32.7 µM

Question: What about the TGI [11] of the same compound?
Answer: 37 µM

Question: And the TGI [12]?
Answer: 32.1 µM

Question: What about the TGI [13] of the same compound?
Answer: 33.4 µM

Question: And the TGI [15]?
Answer: 43 µM

Question: And the TGI [16]?
Answer: 33 µM

Question: And the TGI [18]?
Answer: 34.1 µM

Question: And the TGI [19]?
Answer: 34.7 µM

Question: What about the TGI [20] of the same compound?
Answer: > 100 µM

Question: And the TGI [21]?
Answer: 36.2 µM

Question: And the TGI [22]?
Answer: 33.7 µM

Question: And the TGI [23]?
Answer: 34.6 µM

Question: What about the TGI [24] of the same compound?
Answer: 32.6 µM

Question: And the TGI [25]?
Answer: 31.3 µM

Question: And the TGI [26]?
Answer: 35.3 µM

Question: And the TGI [27]?
Answer: 36.1 µM

Question: What about the TGI [28] of the same compound?
Answer: 57 µM

Question: And the TGI [29]?
Answer: 39.7 µM

Question: And the TGI [30]?
Answer: 30.8 µM

Question: And the TGI [31]?
Answer: 30.4 µM

Question: And the TGI [32]?
Answer: 31.5 µM

Question: What about the TGI [33] of the same compound?
Answer: 29.3 µM

Question: What about the TGI [34] of the same compound?
Answer: 30.6 µM

Question: And the TGI [35]?
Answer: 33.9 µM

Question: And the TGI [36]?
Answer: 33.4 µM

Question: And the TGI [37]?
Answer: 63.2 µM

Question: And the TGI [39]?
Answer: 32.6 µM

Question: What about the TGI [40] of the same compound?
Answer: 30.3 µM

Question: What about the TGI [41] of the same compound?
Answer: 33.1 µM

Question: And the TGI [42]?
Answer: 43.3 µM

Question: And the TGI [43]?
Answer: 34.3 µM

Question: And the TGI [44]?
Answer: 34.2 µM

Question: And the TGI [46]?
Answer: 30.6 µM

Question: What about the TGI [47] of the same compound?
Answer: 35.8 µM

Question: What about the TGI [48] of the same compound?
Answer: 37.6 µM

Question: And the TGI [49]?
Answer: 41.3 µM

Question: What about the TGI [50] of the same compound?
Answer: 53.6 µM

Question: And the TGI [51]?
Answer: 39.2 µM

Question: And the TGI [53]?
Answer: 33.9 µM

Question: What about the TGI [54] of the same compound?
Answer: 31 µM

Question: And the TGI [55]?
Answer: 38.6 µM

Question: What about the TGI [56] of the same compound?
Answer: 38.7 µM

Question: And the TGI [57]?
Answer: 39.8 µM
